Test results from PMC11480411, “Mucosal sugars delineate pyrazine vs pyrazinone autoinducer signaling in Klebsiella oxytoca” (Nature Communications, 2024).

Key:
S. enterica Typhimurium = system: S. enterica Typhimurium; set-up: method as in PMID 36929450; details: 100 µM (supra-physiological); cited from earlier work
K. oxytoca = test: Culture growth (OD600) with sialic acid supplementation; format: cell-based, Klebsiella oxytoca; details: M9+CAS with sialic acid, peer review file, not added to the study
Protocol: as 2 times the recorded value). Importantly, all cultures in this experiment grew. […]
supplemented cultures. All cultures had reached stationary phase after 24 hours. While Neu5Gc cultures did grow slower than Neu5Ac cultures, the term suppression was incorrect. Therefore, we deleted text around Neu5Gc suppression and have changed line 123 to now read: […]
the SI. The following growth analysis was not added to the study.
2. Fig3 describes the role of PLP-enzyme for the production of pyrazines (features 5-9). From
Fig.3a it is clear that features 5 and 7 are different from 6, 8, and 9. Are there functional differences between these 2 groups of compounds in terms of siderophore production? […]
complementation of the pyr mutant with feature 7 could induce siderophore production (Fig4).
What about the features from the other group (6, 8, and 9)?
To address this comment, we performed RNA-seq analysis feeding compound 6 and looked at regulated genes/operons. Similar to compound 7, compound 6 supplementation increased the […]
a table listing specific genes, is now included in the SI. As such, lines 345-348 now read: […]
compound also differentially regulated the transcriptome (201 genes with Padj < 0.05; abs(log2FC) > 1) and enhanced the transcription of genes related to iron acquisition and iron metabolism (Supplemental Information).”
(also on this page, place not known: value ). PLP -enzyme -9). […]

[1] = system: leup operon (leupeptin BGC) promoter in K. oxytoca ATCC 8724; test: GFP-based transcriptional reporter for the leup operon; format: cell-based, Klebsiella oxytoca; details: carbohydrate screen, M9 + casamino acid + 0.4% indicated sugar, 30 °C, 24 h
Text: We previously examined a panel of 84 clinical K. oxytoca isolates (including recently renamed Klebsiella michiganensis isolates) for the presence of either the leup operon or npsB, an NRPS of the tilimycin/tilivalline gene cluster. […] While the roles of tilivalline and tilimycin in hemorrhagic colitis are well studied[8],[9], the operon for leupeptin biosynthesis is “silent” in K. oxytoca under typical laboratory culture conditions (i.e., leupeptin production is undetectable). Therefore, our study commenced by exploring growth conditions required to trigger leupeptin biosynthesis in K. oxytoca. To achieve this, we generated a green fluorescent protein (GFP)-based reporter system to monitor leup transcription in K. oxytoca ATCC 8724 (recently renamed as Klebsiella michiganensis (ATCC 8724), Fig. 1a). We utilized λ-red recombineering techniques[38] to replace the first biosynthetic gene (leupA) of the leupeptin BGC with a GFP-spectinomycin resistance cassette. […] Consequently, conditions that elicit transcription of the leupeptin BGC can be monitored by GFP fluorescence intensity.
(§1) 5 mL of the leupeptin reporter strain was cultured aerobically in 10 g/L of LB (Becton Dickinson), yeast extract, GAM (HiMedia Laboratories), horse liver extract (HiMedia Laboratories), malt extract (VWR), meat extract (HiMedia Laboratories), YPD (Dot Scienticifc), brain heart infusion (Becton Dickinson), porcine mucin (Sigma-Aldrich, M1778), clostridial (Becton Dickinson), TSB (VWR), or casamino acid supplemented (5 g/L, VWR) M9 minimal salts (MP Biomedicals) at 30 °C for 24 h at 250 rpm. Cultures were lysed via sonication, centrifuged, and 150 µL of the supernatants were aliquoted into black well clear bottom 96 well plates. GFP fluorescence measurements were performed on a BioTek Synergy H1 plate reader with an excitation wavelength of 488 nm and an emission wavelength of 525 nm. For the carbohydrate screen, the leupeptin reporter strain was cultured in M9 minimal medium (MPbio) supplemented with casamino acid (5 g/L, VWR) and 0.4% indicated sugar aerobically at 30 °C for 24 h at 250 rpm.

[2] = system: wildtype K. oxytoca ATCC 8724; test: Leupeptin detection in culture extracts by HPLC-QTOF-MS; format: cell-based, Klebsiella oxytoca; details: added to cultivation medium
Protocol: as §1
For MS-based determination of leupeptin activation, wildtype K. oxytoca ATCC 8724 was cultured in 5 mL of M9 minimal medium supplemented with 5 g/L casamino acids and 0.4% Neu5Ac. […] To measure the area under the curves for specific molecular features, the exact monoprotonated [M + H]^+ mass was calculated and extracted ion chromatographs (EICs) with a 10-ppm error were constructed. […]

Compound | effect on iron acquisition pathways (S. enterica Typhimurium) | culture growth (K. oxytoca) | GFP fluorescence, GFP Strain + Media ([1]; leup GFP reporter strain) [RFU] | GFP fluorescence, WT + Media ([1]; wildtype K. oxytoca without reporter (background)) [RFU] | induction of leupeptin (1) production [2]
Cc1c[nH]c(=O)c(C)n1 [DPO, dimethylpyrazine-2-ol] | downregulated iron acquisition pathways |  |  |  | 
CC(=O)N[C@H]1[C@H]([C@H](O)[C@H](O)CO)OC(O)(C(=O)O)C[C@@H]1O (stereo partly shown) [Neu5Ac, N-acetylneuraminic acid] |  | grew fastest | 85763 | 8846 | robust detection of leupeptin
O=C(CO)N[C@H]1[C@H]([C@H](O)[C@H](O)CO)OC(O)(C(=O)O)C[C@@H]1O (stereo partly shown) [Neu5Gc, N-glycolneuraminic acid] |  | grew about as fast as non- |  |  | unable to induce the production of 1
